In general, IC50 refers to the concentration that inhibits the measured activity by half.

Where “and” joins values, the source holds several entries; their conditions need not be identical. Equal entries are not always repeated.

One assay deals with mice. Nature of the assay: Hot plate test in mice (nociceptive reaction latency). The format is in vivo. The settings on record: i.v., Anandamide 20 mg/kg, Compound 4 10 mg/kg, cut-off 30 seconds; for Nociceptive Reaction Latency, Mean: N 10; for Nociceptive Reaction Latency, individual mice: hot plate 56° C. The protocol:
This experiment assessed the analgesic effects of anandamide, compound 4, and a combination of anadamide and compound 4 in the hot plate test in mice.
One hundred (100) male Swiss mice ICO: OF1 (IOPS Caw) (Iffa Credo, France) weighing 17 g to 23 g were used in the study. The mice were housed in a temperature (19.5–24.5° C.) and relative humidity (45–65%) controlled room with a 12-h light/dark cycle, with ad libitum access to filtered tap-water and standard pelleted laboratory chow (U.A.R., France) throughout the study. Upon receipt at animal facilities, they were housed 20 per cage and at least a 5-day acclimatization period was observed. Animals were individually identified on their tails.
Ten groups of 10 animals each were used in this study. The individual groups were treated as set forth below. The doses used are expressed in terms of free active substance. The test and reference substances and the vehicle were administered by intravenous route (i.v) in a random order with a volume of 5 mL/kg. Anandamide and compound 4 were concomitantly administered as a mixture by intravenous route under a volume of 10 mL/kg (Groups 3, 7 and 10).
Twenty, thirty and sixty minutes after dosing, a given mouse was placed on a metallic hot plate maintained at 56±0.2° C. The nociceptive reaction latency, characterized by a licking reflex of the forepaws or by a jumping off the hot plate, was recorded. The cut-off time was set to 30 seconds. See Eddy NB, Touchberry CF, Lieberman JE. “Synthetic analgesics.
The mean results from these experiments are presented graphically in FIG. 6. The results tabulated in FIG. 6 are expressed as mean±sem. ANOVA (2 ways): time/treatment's effect as well as interaction between the two, for vehicle, anandamide and association groups. Dunnett's test: * indicates a significant difference in comparison with the vehicle-treated group for P<0.05. Dunnett's test :† indicates a significant difference in comparison with the same treated group at t−60 min for P<0.05. ANOVA (1 ways): at t−30 min for vehicle, anandamide, compound 4 and association groups. Dunnett's test: ° indicates a significant difference in comparison with the vehicle-treated group for P<0.05. Vehicle: Saline+20% DMSO; n=10 mice per groups.

Assay [1] has as its system mammalian anandamide transporter. Nature of the assay: Anandamide uptake functional assay. It counts as cell-based, human. The note with it: reference compound; U-937 cells, [3H]-AEA uptake; read-out: IC50 of AM-404 in this assay. The procedure: The characterization of anandamide uptake was performed with human monocytes (U-937 cells), using a 96 wells format (volume of the reaction 500 μL). Uptake of radiolabelled anandamide by U-937 cells (10^5 cells in 400 μL/well) occured during a 15 minutes incubation time at 37° C. in the presence of test compounds added in solution in 50 μL and 50 μL of [^3H]-AEA (2 nM)/AEA (98 nM).
U-937 cells and [^3H]-AEA/AEA were prepared in a Krebs buffer pH 7.4 containing 25 mM NaHCO3, 11 mM glucose, 50 μM ascorbic acid and 1% BSA. This incubation buffer is oxygenated for 5 minutes before incubation. Basal control is incubated for 15 minutes at 4° C., in absence of any test or reference compound to prevent uptake.
Following incubation, uptake was stopped by filtration through a “unifilter 96-well GFB plate” (Packard) washed with Krebs buffer containing 25 mM NaHCO3 to eliminate the free [^3H]-AEA. The radioactivity associated with the U-937 cells corresponding to the uptake was retained on the unifilter and was measured with a Topcount Microplate Scintillation Counter, (Packard) using Microscint 0 scintillation liquid (Packard).
FIGS. 3–5 depict certain compounds of the present invention and their IC50 values as determined in this assay. […]

The subject of another assay is AT. The note with it: background; read-out: IC50, inhibits AT; cited from earlier work.

Take `CCCCC/C=C\C/C=C\C/C=C\C/C=C\CCCC(=O)NCCO` [Anandamide, N-(2-hydroxyethyl)arachidonamide]: the “Nociceptive Reaction Latency, Mean” value in the assay with mice (20 minutes post-administration) worked out at 8.9 s; with mice (30 minutes post-administration), 8.1 s; with mice (60 minutes post-administration) it was 11.7 s. Besides, the “Nociceptive Reaction Latency, individual mice” value in the assay on mice (20 minutes post-administration) was 10.3 s and 21.2 s and 6.3 s and 8.8 s and 4.9 s and 5.3 s and 8.1 s and 7.8 s and 5.1 s and 11.5 s; in the assay with mice (30 minutes post-administration), 8.9 s and 7.5 s and 10.7 s and 7.9 s and 5.2 s and 9.7 s and 10 s and 7.1 s and 6.5 s and 7.8 s; with mice (60 minutes post-administration) it was 6.9 s and 11.1 s and 10.1 s and 9.3 s and 11.7 s and 8.9 s and 16.1 s and 13.5 s and 24.4 s and 4.6 s.
Turning to `CCCCC/C=C\C/C=C\C/C=C\C/C=C\CCCC(=O)Nc1ccc(O)cc1` [AM-404, N-(4-hydroxyphenyl)arachidonamide], the figures for the IC50 (in assay [1]; in the assay on AT) were 2000 nM and around 2000 nM, respectively.
With `C=CCOc1ccc(CN(CC=Cc2ccccc2)CCOC)cc1` [Compound 4, N-(4-Allyloxybenzyl)-N-(2-methoxyethyl)-N-(3-phenyl-allyl)amine], in the assay with mice (30 minutes post-administration), the “Nociceptive Reaction Latency, Mean” value was 10.2 s; the “Nociceptive Reaction Latency, individual mice” value is 10 s and 12.8 s and 14.5 s and 4.5 s and 10.4 s and 4.2 s and 9.6 s and 13.5 s and 16.3 s and 6.1 s.

The values above are taken from patent US7049329B2, “Amines that inhibit a mammalian anandamide transporter, and methods of use thereof” (Sepracor Inc., priority 2002, dated 2006).
